Reference: paper PMC6349869, “The palladacycle complex AJ-5 induces apoptotic cell death while reducing autophagic flux in rhabdomyosarcoma cells” (Cell Death Discovery, 2019)

Assays:
Format in all cases: cell-based, human
SW872 cells = experiment: MTT cell viability assay, SW872 liposarcoma; settings: 48 h
[1] = test system: SW1353, SW872, SW982, HT1080 and MG-63 cells; experiment: Selectivity index of sarcoma subtype cell lines (MTT); settings: relative to the combined IC50 values for normal fibroblasts (FG0 and DMB); SW1353, SW872, SW982, HT1080, MG-63
Procedure: Cells were seeded in 96-well plates and treated the next day with a range of AJ-5 concentrations (0.1–1.0 μM) or vehicle ([…]) for 48 h. Cell viability was measured using the 3-(4,5-dimethylthiazol-2-yl)-2,5-diphenyl-trazolium bromide (MTT) assay (11465007001; Sigma Aldrich) according to the manufacturer’s instructions. Mean cell viability was calculated as a percentage of the mean vehicle control. At least three independent experiments in quadruplicate were performed from which the half maximal inhibitory concentration (IC50) was determined using GraphPad Prism version 6.0 (GraphPad Software, California, USA). The selectivity index (SI) was determined by dividing the IC50 of a normal cell line by the IC50 of a cancer cell line.
Fig. S2 AJ-5 is cytotoxic in a range of sarcoma subtypes. […] Graphs show mean cell viability as a percentage of vehicle control ± SEM for each concentration of AJ-5 determined from three independent experiments performed in quadruplicate. […] (B) Selectivity indices (SIs) were determined for each cell line by dividing the IC50 of each non-malignant cell line (Fig. 1C) including normal fibroblast cell lines (FG0 and DMB) and mesenchymal stem cell line (A10021501) by the IC50 of each sarcoma cell line. […] Colonies were stained with crystal violet and images from three independent repeats were quantified using the ImageJ plugin ColonyArea. […]

[2] = test system: γH2AX, p-ATM, p-Chk2, p-p38, p21 in RH30 and RD cells; experiment: Western blotting and immunocytochemistry of DNA damage and stress pathway proteins
Procedure: Cells were lysed at 4 °C in whole-cell lysis buffer (0.125 M Tris-HCl pH 6.8, 4% SDS, 0.2% glycerol, 0.1% β-mercaptoethanol and a pinch of bromophenol blue) and boiled for 10 min. Proteins were resolved by SDS-PAGE (6–15% gels) and transferred to Hybond ECL membranes (Amersham, UK). The membranes were incubated with primary antibodies: rabbit polyclonal antibodies to phospho-histone H2A.X (Ser139) (#2577), phospho-chk2 (Thr68) (#221), phospho-p38 MAPK (Thr180/Tyr182) (#9211), cleaved caspase-3 (Asp175) (#9661), PARP (#9542), caspase-9 (#9502), LC3B (#2775), p38 MAPK (#9212), rabbit monoclonal antibody to cleaved caspase-7 (Asp198) (D6H1) (#8438), mouse monoclonal antibodies to phospho-ATM (Ser1981) (D6H9) (#5883), Cyclin B1 (V152) (#4135), Caspase-8 (1C12) (#9746), SQSTM1/p62 (D5L7G) (#88588) from Cell Signaling Technology (Massachusetts, USA); mouse monoclonal antibody to p53 (DO-1) (sc-126), rabbit polyclonal antibodies to p21 (C-19) (sc-397), cyclin A (H-432) (sc-751), cyclin B1 (H-433)(sc-752), PARP-1 (H-250) (sc-7150) from Santa Cruz Biotechnology (Texas, USA); rabbit polyclonal antibody to p38 MAP kinase (M0800) from Sigma Aldrich. After primary antibody incubation, membranes were incubated with goat anti-rabbit or goat anti-mouse HRP-conjugated secondary antibodies (Bio-Rad Laboratories, California, USA). Antibody reactive proteins were visualized by enhanced chemiluminescence using SuperSignal West Pico Chemiluminescent Substrate Kit (Thermo Fisher Scientific) or WesternBright ECL HRP Substrate Kit (Advansta, California, USA). Densitometry readings were obtained using ImageJ v1.50i[58] and protein expression levels were represented as a ratio of protein of interest/p38 loading control normalized to the vehicletreated control sample where appropriate. All blots are representative of at least two independent repeats.
Cells were plated on glass coverslips and treated with IC50 AJ-5 or vehicle. […] For quantification, mean fluorescence was measured from at least 20 fields of view per treatment condition and pooled from three independent repeats.

RH30 cells = experiment: Autophagic flux by western blotting (p62; LC3II with bafilomycin A1), RH30
Procedure: AJ-5, synthesized as previously described, was dissolved in dimethyl sulfoxide (DMSO) (D8418; Sigma Aldrich) to give a 5 mM AJ-5 stock which was stored at room temperature (RT) and used within 5 days. AJ-5 was diluted in cell culture medium to achieve the desired final concentration and a vehicle control (DMSO) of the same concentration was prepared simultaneously. Cells were treated at a confluency of 60%. For western blot experiments to determine autophagy flux, cells were treated with 200 nM bafilomycin A1 (B1793; Sigma Aldrich) for 2 h post AJ-5 treatment. Doxorubicin (z/26/0167; Teva Pharmaceutical Industries Ltd, Israel) was used as a positive control in Caspase-Glo experiments at a concentration of 0.5 µM.
Cells were lysed at 4 °C in whole-cell lysis buffer (0.125 M Tris-HCl pH 6.8, 4% SDS, 0.2% glycerol, 0.1% β-mercaptoethanol and a pinch of bromophenol blue) and boiled for 10 min. Proteins were resolved by SDS-PAGE (6–15% gels) and transferred to Hybond ECL membranes (Amersham, UK). […] Densitometry readings were obtained using ImageJ v1.50i[58] and protein expression levels were represented as a ratio of protein of interest/p38 loading control normalized to the vehicletreated control sample where appropriate. […]

Which IC50 (SW872 cells) does the source give for `CC(C)c1cccc(C(C)C)c1[N+]1=Cc2cccc[c]2[Pd-2]1([Cl])[P+](CC[P+](c1ccccc1)(c1ccccc1)[Pd-2]1([Cl])[c]2ccccc2C=[N+]1c1c(C(C)C)cccc1C(C)C)(c1ccccc1)c1ccccc1` (stereo not shown) [AJ-5] here?
Its IC50 is less than 300 nM.

What about the “Selectivity index (SI)” value [1] of the same compound?
The value was greater than 2.

What about the γH2AX levels ([2]; 0.1 µM or IC50, 24 and 48 h, western blotting) of the same compound?
Its γH2AX levels is “dose-dependent increase”.

And the p21 levels ([2]; IC50 concentrations, pronounced after 24 h)?
The p21 levels was “increased”.

And the “Levels of phosphorylated ATM, CHK2 and p38” value ([2]; western blotting)?
The value was “increased levels”.

And the “Autophagic flux judged by p62 levels” value (RH30 cells; RH30, 0.1 µM or IC50, 24 and 48 h)?
The value was “appears to reduce autophagic flux”.

And the “LC3II in the presence of bafilomycin A1” value (RH30 cells; RH30, IC50 24 h then 200 nM bafilomycin A1 2 h)?
Its value is “decreased levels of LC3II”.
